Data: patent US9808003B2, “Herbicidally active 2-(substituted-phenyl)-cyclopentane-1,3-dione compounds and derivatives thereof” (Syngenta Limited, priority 2013, dated 2017)

Legend:
Experiment in all cases: Test 1A glasshouse assay, post-emergence herbicidal activity
Format in all cases: in vivo
[1] = tested on: Alopecurus myosuroides (ALOMY); details: Alopecurus myosuroides, 312 h, application rate 250 g/ha, 13 days after application, visual (100%=total damage; 0%=no damage), read-out: Post-emergence Herbicidal Activity (% Phytotoxicity) ALOMY
Experimental: (§1) Seeds of a variety of test species were sown in standard soil in pots. After cultivation for one day (pre-emergence) or after 8 days cultivation (post-emergence) under controlled conditions in a glasshouse (at 24/16° C., day/night; 14 hours light; 65% humidity), the plants were sprayed with an aqueous spray solution derived from the formulation of the technical active ingredient in acetone/water (50:50) solution containing 0.5% Tween 20 (polyoxyethelyene sorbitan monolaurate, CAS RN 9005-64-5). The test plants were then grown under controlled conditions in a glasshouse (at 24/16° C., day/night; 14 hours light; 65% humidity) and watered twice daily. 13 days after application of the test herbicide, for pre- and post-emergence, the test was evaluated visually for percentage phytotoxicity to the plant (where 100%=total damage to plant; 0%=no damage to plant).
(§2) Lolium perenne (LOLPE), Alopecurus myosuroides (ALOMY), Echinochloa crus-galli (ECHCG), and Avena fatua (AVEFA); these are all grassy monocotyledonous weeds.

[2] = tested on: Avena fatua (AVEFA); details: Avena fatua, 312 h, application rate 250 g/ha, 13 days after application, visual (100%=total damage; 0%=no damage), read-out: Post-emergence Herbicidal Activity (% Phytotoxicity) AVEFA
Experimental: as §1, §2

[3] = tested on: Echinochloa crus-galli (ECHCG); details: Echinochloa crus-galli, 312 h, application rate 250 g/ha, 13 days after application, visual (100%=total damage; 0%=no damage), read-out: Post-emergence Herbicidal Activity (% Phytotoxicity) ECHCG
Experimental: as §1, §2

[4] = tested on: Lolium perenne (LOLPE); details: Lolium perenne, 312 h, application rate 250 g/ha, 13 days after application, visual (100%=total damage; 0%=no damage), read-out: Post-emergence Herbicidal Activity (% Phytotoxicity) LOLPE
Experimental: as §1, §2

Row | Compound | pest or weed control at 250 g/ha [1] [%] | pest or weed control at 250 g/ha [2] [%] | pest or weed control at 250 g/ha [3] [%] | pest or weed control at 250 g/ha [4] [%]
1 | Cc1cc(C)c(C2C(=O)CC(CCNC(=O)c3ccsc3)C2=O)c(C)c1 (centres unmarked) [Compound A4] | 70 | 60 | 100 | 80
2 | Cc1cc(C)c(C2C(=O)CC(CCNC(=O)c3cccs3)C2=O)c(C)c1 (centres unmarked) [Compound A5] | 50 | 30 | 60 | 70
3 | Cc1cc(C)c(C2C(=O)CC(CCNC(=O)c3ccc(Cl)c(Cl)c3)C2=O)c(C)c1 (centres unmarked) [Compound A6] | 30 | 60 | 90 | 90
4 | Cc1cc(C)c(C2C(=O)CC(CCNC(=O)c3ccco3)C2=O)c(C)c1 (centres unmarked) [Compound A7] | 60 | 50 | 90 | 60
5 | Cc1cc(C)c(C2C(=O)CC(CCNC(=O)C3CCC3)C2=O)c(C)c1 (centres unmarked) [Compound A8] | 60 | 70 | 80 | 90
6 | Cc1cc(C)c(C2C(=O)CC(CCNC(=O)C3CCCC3)C2=O)c(C)c1 (centres unmarked) [Compound A9] | 60 | 50 | 70 | 80
7 | CCC(=O)NCCC1CC(=O)C(c2c(C)cc(C)cc2C)C1=O (centres unmarked) [Compound A10] | 60 | 70 | 50 | 70
8 | COc1ccccc1C(=O)NCCC1CC(=O)C(c2c(C)cc(C)cc2C)C1=O (centres unmarked) [Compound A11] | 70 | 70 | 100 | 100
9 | Cc1cc(C)c(C2C(=O)CC(CCNC(=O)c3ccc(C(F)(F)F)cc3)C2=O)c(C)c1 (centres unmarked) [Compound A12] | 80 | 100 | 100 | 100
10 | Cc1cc(C)c(C2C(=O)CC(CCNC(=O)c3ccc(F)c(Cl)c3)C2=O)c(C)c1 (centres unmarked) [Compound A14] | 60 | 70 | 100 | 70
11 | Cc1cc(C)c(C2C(=O)CC(CCNC(=O)c3ccc(OC(F)(F)F)cc3)C2=O)c(C)c1 (centres unmarked) [Compound A15] | 60 | 90 | 100 | 90
12 | Cc1cc(C)c(C2C(=O)CC(CCNC(=O)c3ccoc3)C2=O)c(C)c1 (centres unmarked) [Compound A16] | 60 | 50 | 50 | 60
13 | Cc1cc(C)c(C2C(=O)CC(CCNC(=O)c3ccc(F)cc3F)C2=O)c(C)c1 (centres unmarked) [Compound A17] | 80 | 90 | 100 | 100
14 | COc1ccc(C(=O)NCCC2CC(=O)C(c3c(C)cc(C)cc3C)C2=O)cc1 (centres unmarked) [Compound A18] | 60 | 80 | 100 | 90
15 | Cc1cc(C)c(C2C(=O)CC(CCNC(=O)c3ccccc3Cl)C2=O)c(C)c1 (centres unmarked) [Compound A20] | 70 | 70 | 100 | 100
16 | CCC(CC1CC(=O)C(c2c(C)cc(C)cc2C)C1=O)NC(=O)c1ccc(F)cc1 (centres unmarked) [Compound A21] | 90 | 90 | 100 | 100
17 | Cc1cc(C)c(C2C(=O)CC(CCNC(=O)c3ccc(Cl)nc3)C2=O)c(C)c1 (centres unmarked) [Compound A22] | 70 | 80 | 80 | 80
18 | Cc1cc(C)c(C2C(=O)CC(CCNC(=O)c3ccc(Cl)nc3Cl)C2=O)c(C)c1 (centres unmarked) [Compound A24] | 80 | 80 | 80 | 90

Row | Compound | pest or weed control at 250 g/ha [1] [%] | pest or weed control at 250 g/ha [2] [%] | pest or weed control at 250 g/ha [3] [%] | pest or weed control at 250 g/ha [4] [%]
19 | Cc1cc(C)c(C2C(=O)CC(CCNC(=O)c3cc(Cl)nc(Cl)c3)C2=O)c(C)c1 (centres unmarked) [Compound A25] | 50 | 40 | 80 | 60
20 | Cc1cc(C)c(C2C(=O)CC(CCNC(=O)c3cccnc3Cl)C2=O)c(C)c1 (centres unmarked) [Compound A26] | 80 | 80 | 80 | 80
21 | Cc1cc(C)c(C2C(=O)CC(CCNC(=O)c3ccc4ccccc4n3)C2=O)c(C)c1 (centres unmarked) [Compound A27] | 80 | 90 | 100 | 70
22 | COc1cc(C(=O)NCCC2CC(=O)C(c3c(C)cc(C)cc3C)C2=O)cc(Cl)n1 (centres unmarked) [Compound A28] | 100 | 50 | 80 | 70
23 | Cc1cc(C)c(C2C(=O)CC(CCNC(=O)c3ccc(C(F)(F)F)nc3)C2=O)c(C)c1 (centres unmarked) [Compound A29] | 80 | 90 | 80 | 80
24 | Cc1cc(C)c(C2C(=O)CC(CCNC(=O)C3CCOCC3)C2=O)c(C)c1 (centres unmarked) [Compound A35] | 80 | 40 | 40 | 60
25 | Cc1cc(C)c(C2C(=O)CC(CCNC(=O)C3CCOC3)C2=O)c(C)c1 (centres unmarked) [Compound A36] | 80 | 70 | 80 | 80
26 | Cc1cc(C)c(C2C(=O)CC(CCNC(=O)c3cccc[n+]3[O-])C2=O)c(C)c1 (centres unmarked) [Compound A37] | 100 | 80 | 80 | 90
27 | Cc1cc(-c2ccc(Cl)cn2)cc(C)c1C1C(=O)CC(CCNC(=O)c2ccccn2)C1=O (centres unmarked) [Compound A38] | 100 | 100 | 100 | 100
28 | Cc1cc(C)c(C2C(=O)CC(CCNC(=O)c3nc(Cl)ccc3Cl)C2=O)c(C)c1 (centres unmarked) [Compound A39] | 100 | 100 | 100 | 100
29 | Cc1cc(C)c(C2C(=O)CC(CCNC(=O)c3nc(Cl)ccc3Br)C2=O)c(C)c1 (centres unmarked) [Compound A40] | 100 | 100 | 100 | 100
30 | Cc1cc(C)c(C2C(=O)CC(CCNC(=O)c3ncccc3N)C2=O)c(C)c1 (centres unmarked) [Compound A41] | 70 | 70 | 60 | 70
31 | Cc1cc(C)c(C2C(=O)CC(CCNC(=O)c3ncc(C(F)(F)F)cc3Cl)C2=O)c(C)c1 (centres unmarked) [Compound A43] | 100 | 100 | 100 | 100
32 | Cc1cc(C)c(C2C(=O)CC(CCNC(=O)c3ncccc3Cl)C2=O)c(C)c1 (centres unmarked) [Compound A44, 3-chloro-N-[2-[2,4-dioxo-3-(2,4,6-trimethylphenyl)cyclopentyl]ethyl]pyridine-2-carboxamide] | 100 | 90 | 100 | 100
33 | Cc1cc(C)c(C2C(=O)CC(CCNC(=O)Cc3ccccn3)C2=O)c(C)c1 (centres unmarked) [Compound A45] | 50 | 80 | 60 | 80
34 | Cc1cc(C)c(C2C(=O)CC(CCNC(=O)c3ncccc3Br)C2=O)c(C)c1 (centres unmarked) [Compound A46] | 60 | 70 | 90 | 100
35 | Cc1cc(C)c(C2C(=O)CC(CCNC(=O)c3cccc(Cl)n3)C2=O)c(C)c1 (centres unmarked) [Compound A47] | 80 | 90 | 100 | 100
